The results in this text go back to patent publication US10065928B2, “Quinolinone compound and use thereof” (Sunshine Lake Pharma Co., Ltd., priority 2014, dated 2018).

A word on the EC50: it is the concentration needed to bring the measured effect to its halfway point. Lower therefore signals a more potent agent.

Structures are written as SMILES.

The subject of the experiment is erythropoietin (EPO) production in Hep3B cells. Put plainly: Activity in inducing erythropoietin (EPO) production in vitro, Hep3B cells, EPO ELISA. The experiment is classed as cell-based. To be noted: Homo sapiens, 24 h, EPO in supernatant by ELISA. The protocol: The activities of compounds of the invention in inducing erythropoietin (EPO) production were assessed by using human live cancer cell strain Hep3B (ATCC: American type culture collection, Manassas, Va.). Hep3B cells seeded in a 96-well plate with a density of 2.5×10^4 cells/well were cultivated overnight in DMEM culture medium (Dulbecco's Modified Eagle's Medium) at 37° C. in the presence of 10% fetal bovine serum (FBS). The next day, the supernatant liquid of culture medium was abandoned by suction, and to the residue was added fresh DMEM (containing 0.5% DMSO, 0.5% FBS) containing compound of the invention with a series of concentrations (0.31160.00 μM) or containing solvent used for comparison. The cells were cultivated at 37° C. for 24 h. The supernatant liquid was collected and the EPO concentration of the supernatant was quantified by using human EPO ELISA kit (Abcam). The activity of each compound in inducing erythropoietin (EPO) production was represented by half maximal effective concentration (EC50).
(In general: In an ELISA, binding on a coated surface is turned into a signal by an enzyme label.)
The compound `Cn1c(=O)c(C(=O)NCC(=O)O)c(O)c2ccc(Oc3cccc(Cl)c3Cl)cc21` [Example 30, 2-(7-(2,3-dichlorophenoxy)-4-hydroxy-1-methyl-2-oxo-1,2-dihydroquinoline-3-carboxamido)acetic acid] displayed an EC50 of 1.97 µM. This lies in the single-digit micromolar range.

In the case of `Cn1c(=O)c(C(=O)NCC(=O)O)c(O)c2cc(Oc3ccc4ccccc4c3)ccc21` [Example 9, 2-(4-hydroxy-1-methyl-6-(naphthalen-2-yloxy)-2-oxo-1,2-dihydroquinoline-3-carboxamido)acetic acid], the concentration giving a half-maximal response (EC50) was 2.52 µM.

`Cn1c(=O)c(C(=O)NCC(=O)O)c(O)c2ccc(Oc3ccccc3F)cc21` [Example 45, 2-(7-(2-fluorophenoxy)-4-hydroxy-1-methyl-2-oxo-1,2-dihydroquinoline-3-carboxamido)acetic acid] came in with a 50% effective concentration (EC50) of 6.02 µM.

For `Cn1c(=O)c(C(=O)NCC(=O)O)c(O)c2ccc(Oc3cc(Cl)cc(Cl)c3)cc21` [Example 34, 2-(7-(3,5-dichlorophenoxy)-4-hydroxy-1-methyl-2-oxo-1,2-dihydroquinoline-3-carboxamido)acetic acid], it took 20.2 µM to reach a half-maximal effect (EC50).

`Cn1c(=O)c(C(=O)NCC(=O)O)c(O)c2ccc(Oc3ccccc3Cl)cc21` [Example 48, 2-(7-(2-chlorophenoxy)-4-hydroxy-1-methyl-2-oxo-1,2-dihydroquinoline-3-carboxamido)acetic acid] displayed an EC50 of 6.6 µM.

For the compound `Cn1c(=O)c(C(=O)NCC(=O)O)c(O)c2ccc(Oc3cccc(Cl)c3)cc21` [Example 12, 2-(7-(3-chlorophenoxy)-4-hydroxy-1-methyl-2-oxo-1,2-dihydroquinoline-3-carboxamido)acetic acid], the concentration giving a half-maximal response (EC50) was 4.24 µM.

Consider `Cn1c(=O)c(C(=O)NCC(=O)O)c(O)c2ccc(Oc3ccc(F)cc3F)cc21` [Example 15, 2-(7-(2,4-difluorophenoxy)-4-hydroxy-1-methyl-2-oxo-1,2-dihydroquinoline-3-carboxamido)acetic acid], for which the concentration giving a half-maximal response (EC50) stood at 6.92 µM.

Compound `COc1ccc(Oc2ccc3c(O)c(C(=O)NCC(=O)O)c(=O)n(C)c3c2)cc1` [Example 36, 2-(4-hydroxy-7-(4-methoxyphenoxy)-1-methyl-2-oxo-1,2-dihydroquinoline-3-carboxamido)acetic acid] returned an EC50 of 2.95 µM. This EC50 lies about 2.3-fold lower than the previous one.

With `Cn1c(=O)c(C(=O)NCC(=O)O)c(O)c2ccc(Oc3cc(F)cc(F)c3)cc21` [Example 18, 2-(7-(3,5-difluorophenoxy)-4-hydroxy-1-methyl-2-oxo-1,2-dihydroquinoline-3-carboxamido)acetic acid], a half-maximal effect (EC50) was put at 6.28 µM. Compared with the last compound, the EC50 is about 2.1-fold higher.

As for `Cn1c(=O)c(C(=O)NCC(=O)O)c(O)c2cc(S(=O)(=O)n3ccc4ccccc43)ccc21` [Example 7, 2-(6-((1H-indol-1-yl)sulfonyl)-4-hydroxy-1-methyl-2-oxo-1,2-dihydroquinoline-3-carboxamido)acetic acid], a half-maximal response (EC50) required 6.83 µM.

Compound `Cn1c(=O)c(C(=O)NCC(=O)O)c(O)c2ccc(Oc3cccc(F)c3Cl)cc21` [Example 24, 2-(7-(2-chloro-3-fluorophenoxy)-4-hydroxy-1-methyl-2-oxo-1,2-dihydroquinoline-3-carboxamido)acetic acid] returned an EC50 of 9.53 µM.

For the compound `CN(C(=O)c1ccc2c(c1)c(O)c(C(=O)NCC(=O)O)c(=O)n2C)C(c1ccccc1)c1ccccc1` [Example 11, 2-(6-(benzhydryl(methyl)carbamoyl)-4-hydroxy-1-methyl-2-oxo-1,2-dihydroquinoline-3-carboxamido)acetic acid], the half-maximal effective concentration (EC50) came to 10.2 µM.

`Cn1c(=O)c(C(=O)NCC(=O)O)c(O)c2ccc(Oc3c(F)cccc3F)cc21` [Example 16, 2-(7-(2,6-difluorophenoxy)-4-hydroxy-1-methyl-2-oxo-1,2-dihydroquinoline-3-carboxamido)acetic acid] registered a concentration for a half-maximal effect (EC50) of 8.83 µM. The EC50 values of the last two compounds are within 1.5-fold of each other.

As for `Cn1c(=O)c(C(=O)NCC(=O)O)c(O)c2ccc(Oc3c(Cl)cccc3Cl)cc21` [Example 32, 2-(7-(2,6-dichlorophenoxy)-4-hydroxy-1-methyl-2-oxo-1,2-dihydroquinoline-3-carboxamido)acetic acid], the 50% effective concentration (EC50) was 3.63 µM.

`Cn1c(=O)c(C(=O)NCC(=O)O)c(O)c2ccc(Oc3cccc(Cl)c3F)cc21` [Example 20, 2-(7-(3-chloro-2-fluorophenoxy)-4-hydroxy-1-methyl-2-oxo-1,2-dihydroquinoline-3-carboxamido)acetic acid]: the EC50 is 3.75 µM.

In turn, `COc1ccccc1Oc1ccc2c(O)c(C(=O)NCC(=O)O)c(=O)n(C)c2c1` [Example 38, 2-(4-hydroxy-7-(2-methoxyphenoxy)-1-methyl-2-oxo-1,2-dihydroquinoline-3-carboxamido)acetic acid] yielded an EC50 of 8.85 µM. Against the preceding compound, the EC50 is about 2.4-fold higher.

`Cn1c(=O)c(C(=O)NCC(=O)O)c(O)c2cc(F)c(Oc3ccccc3)cc21` [Example 39, 2-(6-fluoro-4-hydroxy-1-methyl-2-oxo-7-phenoxy-1,2-dihydroquinoline-3-carboxamido)acetic acid] had an EC50 of 4.89 µM.

In the case of `Cn1c(=O)c(C(=O)NCC(=O)O)c(O)c2ccc(Oc3cc(Cl)ccc3Cl)cc21` [Example 35, 2-(7-(2,5-dichlorophenoxy)-4-hydroxy-1-methyl-2-oxo-1,2-dihydroquinoline-3-carboxamido)acetic acid], the EC50 stood at 2.25 µM.

`Cn1c(=O)c(C(=O)NCC(=O)O)c(O)c2ccc(Oc3cccc(F)c3)cc21` [Example 46, 2-(7-(3-fluorophenoxy)-4-hydroxy-1-methyl-2-oxo-1,2-dihydroquinoline-3-carboxamido)acetic acid] displayed an EC50 of 3.61 µM. This EC50 lies about 1.6-fold higher than the previous one.

Consider `Cn1c(=O)c(C(=O)NCC(=O)O)c(O)c2ccc(Oc3ccc(F)c(Cl)c3)cc21` [Example 29, 2-(7-(3-chloro-4-fluorophenoxy)-4-hydroxy-1-methyl-2-oxo-1,2-dihydroquinoline-3-carboxamido)acetic acid], for which the midpoint of the response, the EC50, lay at 10.2 µM. Compared with the last compound, the EC50 is about 2.8-fold higher.

Regarding `Cn1c(=O)c(C(=O)NCC(=O)O)c(O)c2ccc(Oc3cccc(F)c3F)cc21` [Example 14, 2-(7-(2,3-difluorophenoxy)-4-hydroxy-1-methyl-2-oxo-1,2-dihydroquinoline-3-carboxamido)acetic acid], the concentration for a half-maximal effect (EC50) was 10.2 µM.

The compound `O=C(O)CNC(=O)c1c(O)c2ccc(Oc3ccccc3)cc2n(CCC2CC2)c1=O` [Example 42, 2-(1-(cyclopropylethyl)-4-hydroxy-2-oxo-7-phenoxy-1,2-dihydroquinoline-3-carboxamido)acetic acid] had a concentration giving a half-maximal response (EC50) of 3.34 µM.

For `Cn1c(=O)c(C(=O)NCC(=O)O)c(O)c2ccc(Oc3ccc(Cl)c(F)c3)cc21` [Example 25, 2-(7-(4-chloro-3-fluorophenoxy)-4-hydroxy-1-methyl-2-oxo-1,2-dihydroquinoline-3-carboxamido)acetic acid], a half-maximal effect (EC50) was put at 10.2 µM.

`Cn1c(=O)c(C(=O)NCC(=O)O)c(O)c2ccc(Oc3ccc(Cl)c(Cl)c3)cc21` [Example 33, 2-(7-(3,4-dichlorophenoxy)-4-hydroxy-1-methyl-2-oxo-1,2-dihydroquinoline-3-carboxamido)acetic acid]: the EC50 came to 2.56 µM.

`Cn1c(=O)c(C(=O)NCC(=O)O)c(O)c2ccc(Oc3c(F)cccc3Cl)cc21` [Example 23, 2-(7-(2-chloro-6-fluorophenoxy)-4-hydroxy-1-methyl-2-oxo-1,2-dihydroquinoline-3-carboxamido)acetic acid]: a half-maximal response (EC50) required 9.23 µM.
